Measurements: US20260159815A1, “METHODS OF CULTURING CARDIAC CELLS AND USE OF CELLS FOR DISEASE MODELING” (Technion Research & Development Foundation Limited, priority 2023, published 2026)

System: iPSC-derived cardiomyocytes
Assay: RT-qPCR of selected sarcomere genes (TNNI1, TNNI3)
Assay type: cell-based, human
Conditions: Torin1 10 nM and 25 nM, maturation media groups (3 mM glucose)
Description: Gene expression (RT-qPCR): RNA was extracted from cells using […], then reverse transcribed to cDNA with the Iscript™ cDNA Synthesis Kit (Bio-Rad, US). The quantitative polymerase chain reaction was performed using the Lightcycler® 480 SYBR Green I Master (syber green) (Roche, Switzerland).
Cardiomyocyte maturation: hiPSCs were differentiated into cardiomyocytes as follows. On day 0, the hiPSC medium was replaced with CDM3 media supplemented with 6 μM CHIR99021 (R&D Systems, US) to induce differentiation toward a mesodermal fate. After 48 hours the same medium was use, supplemented with 2 μM of Wnt-C59 (Selleck Chemicals, US). After 48 hours, the medium was replaced with RPMI-B27-insulin (Thermo Fisher Scientific, US). On day 10, maturation process was started with the replacement of the medium with maturation media. This process continued for 14 days during which Torin1 was added only in the first 7 days. At the end of the process, several criteria were tested to characterize the maturation of the CMs and the other supporting cells. […]

CCC(=O)N1CCN(c2ccc(-n3c(=O)ccc4cnc5ccc(-c6cnc7ccccc7c6)cc5c43)cc2C(F)(F)F)CC1 [Torin1]
TNNI3 mRNA expression: trended toward increased expression of TNNI3 mRNA expression in a dose-dependent manner
